According to the NIST ThermoML archive (doi:10.1016/j.jct.2011.09.007):
Numbers after ± are expanded uncertainties.

Columns and labels:
[1] = Liquid; for mass density: 298.15 K, 101.33 kPa, Vibrating tube method; for vapor or sublimation pressure: Ebulliometric method (Recirculating still)
[2] = refractive index (Na D-line) (dimensionless); settings: 298.15 K; 101.33 kPa; Liquid; Standard Abbe refractometry

mass density [1] [kg/m3] | vapor or sublimation pressure ([1]; 330 K) [kPa] | vapor or sublimation pressure ([1]; 340 K) [kPa] | refractive index [2] | vapor or sublimation pressure ([1]; 330.04 K) [kPa] | vapor or sublimation pressure ([1]; 331.02 K) [kPa] | vapor or sublimation pressure ([1]; 337.07 K) [kPa] | vapor or sublimation pressure ([1]; 340.05 K) [kPa] | vapor or sublimation pressure ([1]; 340.57 K) [kPa] | vapor or sublimation pressure ([1]; 343.73 K) [kPa] | vapor or sublimation pressure ([1]; 347.76 K) [kPa] | vapor or sublimation pressure ([1]; 351.12 K) [kPa] | vapor or sublimation pressure ([1]; 365.8 K) [kPa] | vapor or sublimation pressure ([1]; 371.23 K) [kPa] | vapor or sublimation pressure ([1]; 373.22 K) [kPa] | vapor or sublimation pressure ([1]; 375.59 K) [kPa] | vapor or sublimation pressure ([1]; 378.26 K) [kPa] | vapor or sublimation pressure ([1]; 381.01 K) [kPa] | vapor or sublimation pressure ([1]; 382.94 K) [kPa] | vapor or sublimation pressure ([1]; 384.94 K) [kPa] | SMILES
780.91 ± 0.16 | 33.25 ± 0.23 | 52.97 ± 0.29 | 1.37504 ± 0.00072 |  |  |  |  |  |  |  |  |  |  |  |  |  |  |  |  | CC(C)O [propan-2-ol]
798.8 ± 0.21 | 8.87 ± 0.04 | 13.55 ± 0.06 | 1.3974 ± 0.0007 | 8.87 ± 0.04 | 9.28 ± 0.04 | 12.02 ± 0.05 | 13.58 ± 0.06 | 13.89 ± 0.06 | 15.78 ± 0.06 | 18.48 ± 0.07 | 21.02 ± 0.08 | 35.36 ± 0.11 | 42.49 ± 0.14 | 45.36 ± 0.15 | 49 ± 0.16 | 53.37 ± 0.18 | 58.22 ± 0.19 | 61.82 ± 0.2 | 65.74 ± 0.21 | CC(C)C(=O)C(C)C [2,4-dimethyl-3-pentanone]
687.79 ± 0.2 | 25.47 ± 0.16 | 36.64 ± 0.2 | 1.38894 ± 0.00072 |  |  |  |  |  |  |  |  |  |  |  |  |  |  |  |  | CC(C)CC(C)(C)C [2,2,4-trimethylpentane]
